According to ChEMBL document CHEMBL1140718, “Fragment-based discovery of mexiletine derivatives as orally bioavailable inhibitors of urokinase-type plasminogen activator” (J Med Chem, 2008):

Assays:
[1] = target: Urokinase-type plasminogen activator (Homo sapiens, UniProt P00749)
[2] = Clearance in rat at 0.95 mg/kg, iv; format: ADME, organism-based; set-up: dose 0.95 mg/kg, route intravenous; conditions: in vivo
[3] = Volume of distribution in rat at 0.95 mg/kg, iv; format: ADME, organism-based; set-up: dose 0.95 mg/kg, route intravenous; conditions: in vivo
[4] = Half life in rat at 0.95 mg/kg, iv; format: ADME, organism-based; set-up: dose 0.95 mg/kg, route intravenous; conditions: in vivo
[5] = Oral bioavailability in rat at 4.2 mg/kg; format: ADME, organism-based; conditions: in vivo
[6] = Dissociation constant, pKa of the compound; format: physicochemical

In the case of N=C(N)c1ccc(CNC(=O)[C@H](CO)NC(=O)[C@@H](CO)NS(=O)(=O)Cc2ccccc2)cc1, the IC50 [1] is reported as 20 nM.
For Cc1cc(C(=O)Nc2cc(OC(C)C)cc(OC(C)C)c2)cc(C)c1OCCN, the IC50 [1] was 72 nM.
In the case of NCCOc1c(Cl)cc(C(=O)Nc2ccccc2)cc1Cl, the IC50 [1] is reported as 35000 nM.
For CCOC(=O)N1CCN(C(=O)[C@H](Cc2cccc(C(=N)N)c2)NS(=O)(=O)c2c(C(C)C)cc(C(C)C)cc2C(C)C)CC1, the IC50 [1] was 410 nM.
In the case of Cc1cc(C(=O)Nc2cccc(OC(C)C)c2)cc(C)c1OCCN, the IC50 [1] is reported as 2700 nM.
With NC(N)=Nc1ncc(Cl)c2ccc(-c3cccc(C(=O)O)c3)cc12 the IC50 [1] was 37 nM.
For CCOc1c(Cl)cc(N2CCCCC2)cc1NC(=O)c1cc(C)c(OCCN)c(C)c1, the clearance [2] was 43 mL/min/kg, the Vd [3] was 27 L/kg and the half-life [4] was 7.5 h. It also gave a bioavailability [5] of 60% and a pKa [6] of 8.75.
With Cc1cc(C(=O)Nc2cc(F)cc(N3CCOCC3)c2)cc(C)c1OCCN the IC50 [1] was 1600 nM.
Compound COc1ccccc1NC(=O)c1cc(Cl)c(OCCN)c(Cl)c1 has an IC50 [1] of 23000 nM.
CCOc1c(Cl)cc(N2CCCCC2)cc1NC(=O)c1cc(C)c(OC[C@@H](C)N)c(C)c1 showed an IC50 [1] of 460 nM.
